Data from patent US20110015162A1, “15,16-Methylene-17-hydroxy-19-nor-21-carboxylic acid-steroid Y-lactone derivative, use thereof and medicinal products containing the derivative” (Bayer Schering Pharma Aktiengesellschaft, priority 2007, published 2011).

How the values were obtained:
[1] = biological target: T1, fusion protein from the PR-ligand-binding domain and a Gal4-transactivation domain (Homo sapiens, UniProt P06401); assay: Progestational action by transactivation test (CHO K1 reporter cells); assay type: cell-based; conditions: for Emax: CHO-K1, 16 h, read-out: Progesterone receptor Agonism efficacy
T1 construct: expressed in transfected cells; host or cells: CHO K1 cells, stably transfected
T1 sequence (P06401 679-913 limits assumed): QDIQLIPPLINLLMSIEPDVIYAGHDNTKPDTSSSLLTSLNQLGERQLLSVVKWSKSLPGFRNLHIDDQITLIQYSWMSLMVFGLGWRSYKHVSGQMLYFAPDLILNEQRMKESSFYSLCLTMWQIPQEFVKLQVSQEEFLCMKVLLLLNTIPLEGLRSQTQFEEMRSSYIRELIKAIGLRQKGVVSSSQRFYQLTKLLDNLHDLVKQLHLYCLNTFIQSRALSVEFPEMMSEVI
T1 sequence (P04386 1-147 partner limits assumed): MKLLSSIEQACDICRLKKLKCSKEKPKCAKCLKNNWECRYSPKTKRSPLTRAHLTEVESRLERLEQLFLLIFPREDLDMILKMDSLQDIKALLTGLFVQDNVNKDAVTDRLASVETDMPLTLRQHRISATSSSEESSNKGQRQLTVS
Method: 4. Determination of Progestational Action by Means of Transactivation Tests:
The culture medium used for culture of the cells used for the assay was DMEM (Dulbecco's Modified Eagle Medium: […] glucose; PAA, #E15-009) with 10% FCS (Biochrom, S0115, batch #615B), 4 mM L-glutamine, 1% penicillin/streptomycin, 1 mg/ml G418 and 0.5 μg/ml puromycin.
Reporter cell lines (CHO K1 cells stably transfected with a fusion protein from the PR-ligand-binding domain and a Gal4-transactivation domain and a reporter construct, which contained luciferase under the control of a Gal4-responsive promoter) were seeded at a density of 4×10^4 cells per well in white, opaque tissue culture plates each with 96 wells (PerkinElmer, #P12-106-017) and kept in culture medium with 3% DCC-FCS (serum treated with activated charcoal to remove interfering components contained in the serum). The test compounds were added eight hours later, and the cells were incubated with the compounds for 16 hours. The tests were carried out in triplicate. At the end of incubation the medium containing the effector was removed and replaced with lysis buffer. After luciferase assay substrate (Promega, #E1501) had been added, the 96-well plates were then put in a microplate luminometer (Pherastar, BMG Labtech), and the luminescence was measured. The IC50 values were evaluated using software for calculating dose-effect relations.

androgen receptor = biological target: T2, androgen receptor (Homo sapiens, UniProt P10275); assay: Androgen receptor binding test; design: expressed in transfected cells
T2 sequence (P10275 1-920): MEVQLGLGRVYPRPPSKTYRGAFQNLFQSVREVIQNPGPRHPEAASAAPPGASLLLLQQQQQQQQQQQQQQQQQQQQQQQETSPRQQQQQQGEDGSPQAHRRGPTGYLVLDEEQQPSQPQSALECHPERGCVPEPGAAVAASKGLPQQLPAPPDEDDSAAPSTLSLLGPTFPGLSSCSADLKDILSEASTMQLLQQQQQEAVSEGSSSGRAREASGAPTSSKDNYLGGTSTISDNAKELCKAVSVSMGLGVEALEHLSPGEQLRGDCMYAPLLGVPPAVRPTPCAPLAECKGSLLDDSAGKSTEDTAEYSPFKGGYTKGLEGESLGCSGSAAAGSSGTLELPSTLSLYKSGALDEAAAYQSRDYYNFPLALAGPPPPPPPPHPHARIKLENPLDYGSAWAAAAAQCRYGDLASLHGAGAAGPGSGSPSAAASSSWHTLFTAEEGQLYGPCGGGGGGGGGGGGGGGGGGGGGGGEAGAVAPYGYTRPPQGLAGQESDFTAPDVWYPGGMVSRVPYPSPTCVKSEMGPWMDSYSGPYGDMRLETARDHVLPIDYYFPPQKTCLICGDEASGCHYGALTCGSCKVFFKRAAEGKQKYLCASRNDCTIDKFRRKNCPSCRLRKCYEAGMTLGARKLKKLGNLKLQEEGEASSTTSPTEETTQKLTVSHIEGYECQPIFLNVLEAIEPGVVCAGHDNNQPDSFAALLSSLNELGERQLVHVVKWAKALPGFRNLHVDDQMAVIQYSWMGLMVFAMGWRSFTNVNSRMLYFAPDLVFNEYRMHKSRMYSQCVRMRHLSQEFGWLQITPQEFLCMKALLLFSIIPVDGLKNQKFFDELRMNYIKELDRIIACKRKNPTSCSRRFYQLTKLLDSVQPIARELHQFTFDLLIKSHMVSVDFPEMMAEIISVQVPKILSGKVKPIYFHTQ
Method: Using cytosol from progesterone receptor-expressing insect cells (Hi5), competitive binding to the progesterone receptor was determined from the ability to displace ^3H-progesterone as reference substance from the receptor.
3. Androgen Receptor Binding Test: […]

Structure (SMILES)	EC50 [1] [nM]	Emax [1] [%]	IC50 (androgen receptor) [nM]
C[C@]12CC[C@H]3[C@H]([C@@H]1[C@H]1C[C@H]1[C@@]21C=CC(=O)O1)[C@H](C1CC1)CC1=CC(=O)CC[C@@H]13 [Example 17A, 17β-Hydroxy-7α-cyclopropyl-15α,16α-methylene-19-nor-17α-pregna-4,20(Z)-dien-3-one-21-carboxylic acid γ-lactone]	970	71.8	77
C[C@]12CC[C@H]3[C@@H](CCC4=CC(=O)CC[C@@H]43)[C@@H]1[C@H]1C[C@H]1[C@@]21C=CC(=O)O1 [Example 12, 17β-Hydroxy-15α,16α-methylene-19-nor-17α-pregna-4,20(Z)-dien-3-one-21-carboxylic acid γ-lactone]	0.4	75.5	200
C=C[C@@H]1CC2=CC(=O)CC[C@@H]2[C@H]2CC[C@@]3(C)[C@@H]([C@H]4C[C@H]4[C@@]34C=CC(=O)O4)[C@@H]21 [Example 16A, 17β-Hydroxy-7α-vinyl-15α,16α-methylene-19-nor-17α-pregna-4;20(Z)-dien-3-one-21-carboxylic acid γ-lactone]	140	59.3	39
CC[C@@H]1CC2=CC(=O)CC[C@@H]2[C@H]2CC[C@@]3(C)[C@@H]([C@@H]4C[C@@H]4[C@@]34C=CC(=O)O4)[C@H]12 [Example 24A, 7α-Ethyl-17β-hydroxy-15β,16β-methylene-19-nor-17α-pregna-4,20(Z)-dien-3-one-21-carboxylic acid γ-lactone]	140	42.7	160
CC[C@@H]1CC2=CC(=O)CC[C@@H]2[C@H]2CC[C@@]3(C)[C@@H]([C@H]4C[C@H]4[C@@]34C=CC(=O)O4)[C@H]12 [Example 15A, 17β-Hydroxy-7α-ethyl-15α,16α-methylene-19-nor-17α-pregna-4,20(Z)-dien-3-one-21-carboxylic acid γ-lactone]	92	39.5	60
CC[C@]12CC[C@H]3[C@H]([C@@H]1[C@@H]1C[C@@H]1[C@@]21C=CC(=O)O1)[C@H](C1CC1)CC1=CC(=O)CC[C@@H]13 [Example 7A, 17β-Hydroxy-7α-cyclopropyl-18-methyl-15β,16β-methylene-19-nor-17α-pregna-4,20(Z)-dien-3-one-21-carboxylic acid γ-lactone]	–	5	170
C[C@@H]1CC2=CC(=O)CC[C@@H]2[C@H]2CC[C@@]3(C)[C@@H]([C@@H]4C[C@@H]4[C@@]34C=CC(=O)O4)[C@@H]21 [Example 23A, 17β-Hydroxy-7α-methyl-15β,16β-methylene-19-nor-17α-pregna-4,20(2)-dien-3-one-21-carboxylic acid γ-lactone]	21	140	81
